Laboratory results: PubChem BioAssay AID588632 (Broad Institute, 2011)
Results filed as inconclusive are left out. Calls of active or inactive are those of the source.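 How the source made its calls: active means compounds lowering signal with fitted half-maximal concentration within ten times the top tested dose in every test run; inconclusive means test runs disagree, or a run had a weak flat or poor fit; inactive means every test run inactive.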

Biological target: Serine/threonine-protein kinase 33 (Homo sapiens) (UniProt Q9BYT3)
Sequence (Q9BYT3 whole entry, looked up): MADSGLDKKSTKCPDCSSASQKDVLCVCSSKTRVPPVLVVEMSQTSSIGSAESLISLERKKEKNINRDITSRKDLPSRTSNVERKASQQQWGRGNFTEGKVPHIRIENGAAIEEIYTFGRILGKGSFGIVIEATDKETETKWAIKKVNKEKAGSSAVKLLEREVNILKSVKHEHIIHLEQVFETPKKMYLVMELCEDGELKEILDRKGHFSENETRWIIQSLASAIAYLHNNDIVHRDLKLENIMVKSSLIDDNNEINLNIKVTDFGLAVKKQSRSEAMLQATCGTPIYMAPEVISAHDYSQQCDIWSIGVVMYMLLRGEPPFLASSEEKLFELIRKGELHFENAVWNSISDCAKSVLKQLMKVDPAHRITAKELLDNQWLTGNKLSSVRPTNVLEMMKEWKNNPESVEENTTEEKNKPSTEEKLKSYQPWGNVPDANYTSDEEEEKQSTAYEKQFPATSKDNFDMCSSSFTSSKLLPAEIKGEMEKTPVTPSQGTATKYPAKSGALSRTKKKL
Assay: inhibition of purified STK33 phosphorylating MBP – biochemical, ADP-Glo luminescence, dry powder, dose response (AID 588632)
Settings: purified STK33, MBP phosphorylation

`Nc1nc(-c2cc(O)ccc2[N+](=O)[O-])cc(-c2ccccc2)c1[N+](=O)[O-]` was tested. Which AC50 did it give?
Its AC50 is 151 nM.

How did the AC50 turn out when `O=C1NCCCc2c1oc1ccc(O)cc21` was run?
Its AC50 is 939 nM.

For `COc1cc(C(=O)N2CCC(N3CCN(C)CC3)CC2)ccc1Nc1ncc2c(n1)N(C)c1ccccc1C(=O)N2C`, which AC50 is on record?
The AC50 was 6450 nM.

Which AC50 does the source give for `COC(=O)c1ccc(COc2ccccc2/C=C/C(=O)c2ccc(OCC(=O)O)cc2)cc1` here?
The AC50 was 400 nM.

How did the AC50 turn out when `O=C(Nc1ccccc1-c1nc2ccccc2[nH]c1=O)c1cccs1` was run?
The AC50 was 331 nM.

With `CC(C)n1cnc2c(Nc3cccc(Cl)c3)nc(NCCO)nc21` as the compound, how does the AC50 read?
The AC50 was 632 nM.

How did the AC50 turn out when `O=C(Nc1ccccc1-c1ccccc1)c1ccc(Br)o1` was run?
The AC50 was 1580 nM.

With `COc1cc(N2CCC(O)CC2)ccc1Nc1ncc2c(n1)N1CCc3cccc(c31)C(=O)N2C` as the compound, how does the AC50 read?
Its AC50 is 509 nM.

With `COc1cc(N2CCN(C)CC2)ccc1Nc1ncc2c(n1)N(C1CCCC1)C(C)CC(=O)N2C` (stereo not drawn) as the compound, how does the AC50 read?
Its AC50 is 910 nM.

With `CC(Oc1ccc2c(c1)c1ccnc3c4ccccc4c(=O)n2c13)C(=O)NCCN1CCOCC1` (stereo not drawn) as the compound, how does the AC50 read?
Its AC50 is 168 nM.

`O=C1NC(=NCc2ccccc2)S/C1=C/c1ccc(O)cc1` was tested. Which AC50 did it give?
Its AC50 is 522 nM.

`COc1cc(N2CCC(N3CCN(C)CC3)CC2)ccc1Nc1ncc2c(n1)N(C1CCCC1)C(C)CC(=O)N2C` (stereo not drawn) was tested. Which AC50 did it give?
The AC50 was 2200 nM.

For `CCCn1c(NC(=O)c2cccc(S(=O)(=O)N3CCCC3)c2)nc2ccccc21`, which AC50 is on record?
The AC50 was 122 nM.

With `COc1cc(N2CCN(C)CC2)ccc1Nc1ncc2c(n1)N1CCC[C@H]1CC(=O)N2C` as the compound, how does the AC50 read?
Its AC50 is 409 nM.

For `CN1CCN(c2ccc(Nc3ncc4c(n3)N(C)c3ccccc3C(=O)N4C)cc2)CC1`, which AC50 is on record?
The AC50 was 1130 nM.

With `Oc1ccc(Nc2nc(-c3ccccc3O)nc3ccccc23)cc1` as the compound, how does the AC50 read?
Its AC50 is 811 nM.

`COc1cc(N2CCN(C)CC2)ccc1Nc1ncc2c(n1)N(C)c1sccc1C(=O)N2C` was tested. Which AC50 did it give?
The AC50 was 1560 nM.

For `CC(=O)N(C)c1ccc(N=Cc2c(O)ccc3ccccc23)cc1`, which AC50 is on record?
The AC50 was 1130 nM.

`COc1cc(/C=C2\SC(N)=NC2=O)ccc1O` was tested. Which AC50 did it give?
The AC50 was 574 nM.

Which AC50 does the source give for `COc1cc(/C=C2\SC(=Nc3ccccc3OC)NC2=O)ccc1O` here?
Its AC50 is 314 nM.

Which AC50 does the source give for `COc1cc(/C=N/n2c(-c3ccccc3)n[nH]c2=S)ccc1O` here?
Its AC50 is 695 nM.

With `COc1cc(C(=O)NC2CCN(C)CC2)ccc1Nc1ncc2c(n1)N(C1CCC(O)CC1)CCC(=O)N2C` (stereo not drawn) as the compound, how does the AC50 read?
Its AC50 is 1180 nM.

For `COc1cc(N2CCC(N3CCN(C)CC3)CC2)ccc1Nc1ncc2c(n1)N1CCC[C@H]1CC(=O)N2C`, which AC50 is on record?
Its AC50 is 1880 nM.

How did the AC50 turn out when `Cc1ncc(/C=C2\C(=O)Nc3ccccc32)[nH]1` was run?
The AC50 was 795 nM.

How did the AC50 turn out when `COc1cc(N2CCN(C)CC2)ccc1Nc1ncc2c(n1)N(C)c1ccccc1C(=O)N2C` was run?
Its AC50 is 1600 nM.

With `CCOc1ccccc1C(=O)Nc1cc(Cl)ccc1O` as the compound, how does the AC50 read?
The AC50 was 1250 nM.

Same assay, conditions: purified STK33, MBP phosphorylation, at 10 µM (top of the series)

For `CCC(CO)Oc1cc(NC(=O)c2ccc(OC)cc2)c2ncn(C(C)C)c2c1` (stereo not drawn), which “activity change, negative = inhibition” value is on record?
The value was “inactive”.

With `CCC(CO)Oc1cc(NC(=O)c2cccc(F)c2)c2ncn(C(C)C)c2c1` (stereo not drawn) as the compound, how does the “activity change, negative = inhibition” value read?
Its value is “inactive”.

For `CCC(CO)Oc1cc(NC(=O)c2cccc(C)c2)c2ncn(C(C)C)c2c1` (stereo not drawn), which “activity change, negative = inhibition” value is on record?
The value was “inactive”.

For `CCC(CO)Oc1cc(NC(=O)c2cccc([N+](=O)[O-])c2)c2ncn(C(C)C)c2c1` (stereo not drawn), which “activity change, negative = inhibition” value is on record?
Its value is “inactive”.

Which “activity change, negative = inhibition” value does the source give for `CCC(CO)Oc1cc(NC(=O)c2ccc(Cl)cc2)c2ncn(C(C)C)c2c1` (stereo not drawn) here?
The value was “inactive”.

With `CCC(CO)Oc1cc(NC(=O)c2ccc(N)cc2)c2ncn(C(C)C)c2c1` (stereo not drawn) as the compound, how does the “activity change, negative = inhibition” value read?
The value was “inactive”.

How did the “activity change, negative = inhibition” value turn out when `CCC(CO)Oc1cc(NCc2ccccc2)c2ncn(C3CCCC3)c2c1` (stereo not drawn) was run?
Its value is “inactive”.

How did the “activity change, negative = inhibition” value turn out when `CCC(CO)Oc1cc(NCc2ccccc2)c2ncn(C(C)C)c2c1` (stereo not drawn) was run?
Its value is “inactive”.

`CCC(CO)Oc1cc(NC(=O)c2ccccc2)c2ncn(C(C)C)c2c1` (stereo not drawn) was tested. Which “activity change, negative = inhibition” value did it give?
Its value is “inactive”.

For `CCC(CO)Oc1cc(NC(=O)c2cccc(OC)c2)c2ncn(C(C)C)c2c1` (stereo not drawn), which “activity change, negative = inhibition” value is on record?
Its value is “inactive”.

With `CCC(CO)Oc1cc(NC(=O)c2ccccc2Cl)c2ncn(C(C)C)c2c1` (stereo not drawn) as the compound, how does the “activity change, negative = inhibition” value read?
Its value is “inactive”.

How did the “activity change, negative = inhibition” value turn out when `CCC(CO)Oc1cc(NC(=O)c2ccc(C)cc2)c2ncn(C(C)C)c2c1` (stereo not drawn) was run?
Its value is “inactive”.

With `CCC(CO)Oc1cc(NC(=O)c2ccc([N+](=O)[O-])cc2)c2ncn(C(C)C)c2c1` (stereo not drawn) as the compound, how does the “activity change, negative = inhibition” value read?
Its value is “inactive”.

How did the “activity change, negative = inhibition” value turn out when `CCC(CO)Oc1cc(NC(=O)c2ccccc2C)c2ncn(C(C)C)c2c1` (stereo not drawn) was run?
Its value is “inactive”.

For `CCC(CO)Oc1cc(NC(=O)c2cccc(Cl)c2)c2ncn(C(C)C)c2c1` (stereo not drawn), which “activity change, negative = inhibition” value is on record?
Its value is “inactive”.

`CCC(CO)Oc1cc(NC(=O)c2ccc(F)cc2)c2ncn(C(C)C)c2c1` (stereo not drawn) was tested. Which “activity change, negative = inhibition” value did it give?
Its value is “inactive”.

With `CCC(CO)Oc1cc(NC(=O)c2ccccc2OC)c2ncn(C(C)C)c2c1` (stereo not drawn) as the compound, how does the “activity change, negative = inhibition” value read?
Its value is “inactive”.

For `CC(C)n1cnc2c(NCc3ccccc3)cc(OCCCN3CCOCC3)cc21`, which “activity change, negative = inhibition” value is on record?
Its value is “inactive”.

Which “activity change, negative = inhibition” value does the source give for `COCCCOc1cc(NCc2ccccc2)c2ncn(C(C)C)c2c1` here?
The value was “inactive”.

For `CCC(CO)Oc1cc(NC(=O)c2ccccc2N)c2ncn(C(C)C)c2c1` (stereo not drawn), which “activity change, negative = inhibition” value is on record?
The value was “inactive”.

How did the “activity change, negative = inhibition” value turn out when `CCC(CO)Oc1cc(NC(=O)c2cccc(N)c2)c2ncn(C(C)C)c2c1` (stereo not drawn) was run?
Its value is “inactive”.

How did the “activity change, negative = inhibition” value turn out when `COc1cc(NCc2ccccc2)c2ncn(C(C)C)c2c1` was run?
The value was “inactive”.
